Experimental findings from ChEMBL document CHEMBL4476877, “Treatment of COPD, gastro-esophageal reflux disease (GERD), food allergies and other gastrointestinal conditions and disorders ameliorated by proper histamine management using a combination of histidine decarboxylase inhibitors, LRA drugs, anti-H1 and/or anti-H2 drugs” (2012) are described below.

The species entered for assay [1] is Homo sapiens. As to the kind of experiment: Improvement in disease symptoms in patient with COPD assessed as TEV level at 200 mg/day co-treated with 10 mg/day Loratadine and measured after 6 weeks by spirometry relative to control. The class given is functional.
The species entered for assay [2] is Homo sapiens. The experiment in a line: Improvement in disease symptoms in patient with COPD assessed as TEV level at 200 mg/day co-treated with 10 mg/day Loratadine and measured after 6 months by spirometry (reference value: 0.4 L/secs). Type of assay: functional.
For assay [3], the species on record is Homo sapiens. The experiment in a line: Improvement in disease symptoms in patient with COPD assessed as TEV level at 200 mg/day co-treated with 10 mg/day Loratadine and measured after 6 weeks by spirometry (reference value: 0.4 L/secs). Type of assay: functional.
For assay [4], the species on record is Homo sapiens. As to the kind of experiment: Improvement in disease symptoms in patient with COPD assessed as TEV level at 200 mg/day co-treated with 10 mg/day Loratadine and measured after 8 months by spirometry (reference value: 1.4 L/secs). Type of assay: functional.
Assay [5] is filed under the species Homo sapiens. As to the kind of experiment: Improvement in disease symptoms in patient with COPD assessed as TEV level at 200 mg/day co-treated with 10 mg/day Loratadine and measured after 6 months by spirometry (reference value: 1.4 L/secs). Type of assay: functional.
Assay [6] is filed under the species Homo sapiens. The experiment in a line: Improvement in disease symptoms in patient with COPD assessed as TEV level at 200 mg/day co-treated with 10 mg/day Loratadine and measured after 6 weeks by spirometry (reference value: 1.5 L/secs). Type of assay: functional.
Assay [7] is filed under the species Homo sapiens. The experiment in a line: Improvement in disease symptoms in patient with COPD assessed as increase in TEV level at 200 mg/day co-treated with 10 mg/day Loratadine and measured after 10 months by spirometry relative to untreated control. Type of assay: functional.
The species entered for assay [8] is Homo sapiens. As to the kind of experiment: Improvement in disease symptoms in patient with COPD assessed as TEV level at 200 mg/day co-treated with 10 mg/day Loratadine and measured after 6 weeks by spirometry (reference value: 1.4 L/secs). The class given is functional.
For assay [9], the system named is Homo sapiens. The experiment in a line: Improvement in disease symptoms in GERD patient assessed as improvement in disease symptoms at 200 mg dosed daily co-treated with 10 mg anti-H1 drug loratadine dosed daily and 150 mg anti-H2 drug Ranitidine dosed daily. The class given is functional.
For assay [10], the species on record is Homo sapiens. The experiment in a line: Improvement in disease symptoms in patient with COPD assessed as TEV level at 200 mg/day co-treated with 10 mg/day Loratadine and measured after 6 weeks by spirometry (reference value: 1.8 L/secs). The class given is functional.
The species named for assay [11] is Homo sapiens. As to the kind of experiment: Improvement in disease symptoms in patient with COPD assessed as TEV level at 200 mg/day co-treated with 10 mg/day Loratadine and measured after 10 months by spirometry (reference value: 0.4 L/secs). Type of assay: functional.
For assay [12], the species on record is Homo sapiens. As to the kind of experiment: Improvement in disease symptoms in patient with COPD assessed as TEV level at 200 mg/day co-treated with 10 mg/day Loratadine and measured after 12 months by spirometry (reference value: 1.8 L/secs). The class given is functional.
For assay [13], the species on record is Homo sapiens. As to the kind of experiment: Improvement in disease symptoms in patient with COPD assessed as increase in TEV level at 200 mg/day co-treated with 10 mg/day Loratadine and measured after 8 months by spirometry relative to untreated control. The class given is functional.
The species named for assay [14] is Homo sapiens. As to the kind of experiment: Improvement in disease symptoms in patient with COPD assessed as TEV level at 200 mg/day co-treated with 10 mg/day Loratadine and measured after 6 months by spirometry (reference value: 1.2 L/secs). The class given is functional.
For assay [15], the species on record is Homo sapiens. The experiment in a line: Improvement in disease symptoms in patient with COPD assessed as TEV level at 200 mg/day co-treated with 10 mg/day Loratadine and measured after 6 weeks by spirometry (reference value: 1.2 L/secs). Type of assay: functional.
Assay [16] has as its system Homo sapiens. The experiment in a line: Improvement in disease symptoms in GERD patient assessed as improvement in disease symptoms at 200 mg dosed daily co-treated with 10 mg anti-H1 drug loratadine dosed daily relative to control. The class given is functional.
The species named for assay [17] is Homo sapiens. As to the kind of experiment: Improvement in disease symptoms in patient with COPD assessed as TEV level at 200 mg/day co-treated with 10 mg/day Loratadine and measured after 12 months by spirometry (reference value: 1.5 L/secs). The class given is functional.
Assay [18] is filed under the species Homo sapiens. The experiment in a line: Improvement in disease symptoms in patient with COPD assessed as TEV level at 200 mg/day co-treated with 10 mg/day Loratadine and measured after 6 months by spirometry (reference value: 1.8 L/secs). The class given is functional.
For assay [19], the species on record is Homo sapiens. The experiment in a line: Improvement in disease symptoms in patient with COPD assessed as TEV level at 200 mg/day co-treated with 10 mg/day Loratadine and measured after 6 months by spirometry (reference value: 1.5 L/secs). The class given is functional.
The target in assay [20] is T1, Histidine decarboxylase (Homo sapiens) (UniProt P19113).
T1 sequence (whole entry): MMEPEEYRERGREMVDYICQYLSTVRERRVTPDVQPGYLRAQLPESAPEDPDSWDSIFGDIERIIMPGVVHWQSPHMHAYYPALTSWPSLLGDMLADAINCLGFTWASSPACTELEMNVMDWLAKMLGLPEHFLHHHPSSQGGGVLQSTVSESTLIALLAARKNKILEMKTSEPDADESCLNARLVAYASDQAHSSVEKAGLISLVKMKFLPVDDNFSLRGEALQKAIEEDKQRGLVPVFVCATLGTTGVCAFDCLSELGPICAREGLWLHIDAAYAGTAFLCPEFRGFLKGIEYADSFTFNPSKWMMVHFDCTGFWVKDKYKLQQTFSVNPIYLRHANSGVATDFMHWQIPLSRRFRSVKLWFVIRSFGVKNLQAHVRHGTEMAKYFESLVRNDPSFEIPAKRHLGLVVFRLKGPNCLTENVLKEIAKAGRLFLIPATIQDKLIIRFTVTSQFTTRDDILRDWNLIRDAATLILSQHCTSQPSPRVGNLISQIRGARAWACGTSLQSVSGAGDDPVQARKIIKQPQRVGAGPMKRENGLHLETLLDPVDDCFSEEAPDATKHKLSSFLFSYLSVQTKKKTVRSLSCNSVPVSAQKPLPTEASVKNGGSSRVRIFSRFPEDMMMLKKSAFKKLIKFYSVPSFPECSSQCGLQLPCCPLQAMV
The experiment in a line: Inhibition of recombinant human HDC (1 to 512 residues) expressed in Escherichia coli BL21 (DE3) pLysS assessed as reduction in [14C]CO2 production from L-[U-14C]histidine at 10 uM relative to untreated control.

With `CCOc1c(N)c2c(c(OCC)c1OCC)C(C1c3c(cc4c(c3OC)OCO4)CCN1C)OC2=O` (stereo not given) [TRITOQUALINE], the Activity in the assay filed under Homo sapiens [1] is 71.4%; in the assay listed under Homo sapiens [2] it was 0.8 L/s; in the assay listed under Homo sapiens [3], 0.6 L/s; in the assay listed under Homo sapiens [4] it was 2.4 L/s; in the assay listed under Homo sapiens [5], 2.1 L/s; in the assay filed under Homo sapiens [6], 1.7 L/s. In addition, the Activity in the assay listed under Homo sapiens [7] is 125%; in the assay filed under Homo sapiens [8] it was 1.7 L/s; with Homo sapiens [9], 209.5%; in the assay listed under Homo sapiens [10], 2.1 L/s; in the assay listed under Homo sapiens [11], 0.9 L/s; in the assay listed under Homo sapiens [12], 2.6 L/s. In addition, the Activity came to 71.4% in the assay listed under Homo sapiens [13]; 1.9 L/s in the assay filed under Homo sapiens [14]; 1.8 L/s in the assay filed under Homo sapiens [15]; 82.9% with Homo sapiens [16]; 2 L/s in the assay listed under Homo sapiens [17]; 2.1 L/s in the assay filed under Homo sapiens [18]. Besides, the Activity in the assay listed under Homo sapiens [19] was 1.9 L/s.

As for `CCOc1c(N)c2c(c(OCC)c1OCC)C(C1c3c(cc4c(c3OC)OCO4)CCN1C)OC2=O` (racemic), the inhibition (as a rule, the change of the read-out against control, counted positive when it falls) in [20] was found to be 17.5%.
